{"source": "paper PMC7271024", "about": "“N1-Benzofused Modification of Fluoroquinolones Reduces Activity Against Gram-Negative Bacteria” (ACS Omega, 2020)", "key": {"[1]": {"test_system": "K. pneumoniae M6", "test": "MIC, microdilution broth method", "type": "cell-based, Klebsiella pneumoniae", "settings": "for MIC: Klebsiella pneumoniae"}, "[2]": {"test_system": "K. pneumoniae NCTC 13368", "test": "MIC, microdilution broth method", "type": "cell-based, Klebsiella pneumoniae", "settings": "for MIC: Klebsiella pneumoniae", "method": "(§1) The antibacterial activities of the synthesized fluoroquinolones were evaluated against a panel of Gram-negative pathogens including K. pneumoniae (NCTC 13368, M6), Acinetobacter baumannii (AYE, ATCC 17978), Pseudomonas aeruginosa (PAO1, NCTC 13437), and Escherichia coli (NCTC 12923, LEC001). The ability of molecules to permeate the Gram-negative outer membrane was investigated by adding membrane permeabilizer polymyxin B nonapeptide (PMBN) at sub-inhibitory concentrations (Table 2). Phenylalanine–arginine β-naphthylamide (PAβN) was used to investigate efflux of compounds by resistance–nodulation–division (RND)-family efflux pumps (Table 3).\n(§2) Minimal inhibitory concentrations (MICs) were determined using the microdilution broth method. Briefly, compounds were added to the first two columns of a 96-well plate and diluted two-fold down the plate in tryptic soy broth. Overnight cultures of bacteria were then adjusted to a concentration of 1 × 10^6 CFU/mL and added to each well for a final concentration of 5 × 10^5 CFU/mL."}, "[3]": {"test_system": "A. baumannii ATCC 17978", "test": "MIC, microdilution broth method", "type": "cell-based, Acinetobacter baumannii", "settings": "for MIC: Acinetobacter baumannii"}, "[4]": {"test_system": "A. baumannii AYE", "test": "MIC, microdilution broth method", "type": "cell-based, Acinetobacter baumannii", "settings": "for MIC: Acinetobacter baumannii", "method": "as §1, §2"}, "[5]": {"test_system": "P. aeruginosa PAO1", "test": "MIC, microdilution broth method", "type": "cell-based, Pseudomonas aeruginosa", "settings": "Pseudomonas aeruginosa"}, "[6]": {"test_system": "P. aeruginosa NCTC 13437", "test": "MIC, microdilution broth method", "type": "cell-based, Pseudomonas aeruginosa", "settings": "Pseudomonas aeruginosa", "method": "as §1, §2"}, "[7]": {"test_system": "E. coli NCTC 12923", "test": "MIC, microdilution broth method", "type": "cell-based, Escherichia coli", "settings": "for MIC: Escherichia coli"}, "[8]": {"test_system": "E. coli LEC001", "test": "MIC, microdilution broth method", "type": "cell-based, Escherichia coli", "settings": "for MIC: Escherichia coli", "method": "as §1, §2"}, "[9]": {"target": "T1, E. coli DNA gyrase (Escherichia coli, UniProt P0AES4+P0AES6)", "T1 construct": "purchased Inspiralis (Norwich, UK) K0001", "T1 sequence (P0AES4 whole entry, one chain of several)": "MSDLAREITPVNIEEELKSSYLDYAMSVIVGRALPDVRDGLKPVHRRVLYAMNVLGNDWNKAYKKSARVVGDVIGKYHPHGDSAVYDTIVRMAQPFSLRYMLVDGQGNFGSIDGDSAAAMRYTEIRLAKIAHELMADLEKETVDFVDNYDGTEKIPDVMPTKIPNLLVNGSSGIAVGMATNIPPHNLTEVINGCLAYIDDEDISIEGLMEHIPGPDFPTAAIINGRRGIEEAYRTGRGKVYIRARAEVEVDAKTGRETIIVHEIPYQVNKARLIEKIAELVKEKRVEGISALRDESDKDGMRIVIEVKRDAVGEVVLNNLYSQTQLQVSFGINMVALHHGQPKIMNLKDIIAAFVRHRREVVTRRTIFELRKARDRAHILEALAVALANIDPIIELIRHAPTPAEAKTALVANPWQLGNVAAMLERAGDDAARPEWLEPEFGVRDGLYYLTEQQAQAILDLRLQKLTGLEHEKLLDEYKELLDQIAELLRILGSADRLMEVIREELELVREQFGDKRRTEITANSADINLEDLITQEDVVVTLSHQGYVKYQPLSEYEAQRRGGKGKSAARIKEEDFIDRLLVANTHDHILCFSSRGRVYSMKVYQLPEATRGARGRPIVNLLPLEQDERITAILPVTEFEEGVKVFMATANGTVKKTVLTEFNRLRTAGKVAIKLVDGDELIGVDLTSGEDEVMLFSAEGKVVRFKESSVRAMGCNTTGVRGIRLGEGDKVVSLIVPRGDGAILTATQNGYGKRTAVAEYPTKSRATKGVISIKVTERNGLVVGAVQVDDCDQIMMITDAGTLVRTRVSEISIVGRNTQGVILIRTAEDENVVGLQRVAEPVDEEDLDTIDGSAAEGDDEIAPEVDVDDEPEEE", "test": "Cell-free gyrase supercoiling inhibition assay", "type": "biochemical", "settings": "purified enzyme, cell-free supercoiling kit"}, "[10]": {"target": "T2, P. aeruginosa DNA gyrase (Pseudomonas aeruginosa, UniProt P48372+Q9I7C2)", "T2 construct": "purchased Inspiralis (Norwich, UK) PAS001", "T2 sequence (Q9I7C2 whole entry)": "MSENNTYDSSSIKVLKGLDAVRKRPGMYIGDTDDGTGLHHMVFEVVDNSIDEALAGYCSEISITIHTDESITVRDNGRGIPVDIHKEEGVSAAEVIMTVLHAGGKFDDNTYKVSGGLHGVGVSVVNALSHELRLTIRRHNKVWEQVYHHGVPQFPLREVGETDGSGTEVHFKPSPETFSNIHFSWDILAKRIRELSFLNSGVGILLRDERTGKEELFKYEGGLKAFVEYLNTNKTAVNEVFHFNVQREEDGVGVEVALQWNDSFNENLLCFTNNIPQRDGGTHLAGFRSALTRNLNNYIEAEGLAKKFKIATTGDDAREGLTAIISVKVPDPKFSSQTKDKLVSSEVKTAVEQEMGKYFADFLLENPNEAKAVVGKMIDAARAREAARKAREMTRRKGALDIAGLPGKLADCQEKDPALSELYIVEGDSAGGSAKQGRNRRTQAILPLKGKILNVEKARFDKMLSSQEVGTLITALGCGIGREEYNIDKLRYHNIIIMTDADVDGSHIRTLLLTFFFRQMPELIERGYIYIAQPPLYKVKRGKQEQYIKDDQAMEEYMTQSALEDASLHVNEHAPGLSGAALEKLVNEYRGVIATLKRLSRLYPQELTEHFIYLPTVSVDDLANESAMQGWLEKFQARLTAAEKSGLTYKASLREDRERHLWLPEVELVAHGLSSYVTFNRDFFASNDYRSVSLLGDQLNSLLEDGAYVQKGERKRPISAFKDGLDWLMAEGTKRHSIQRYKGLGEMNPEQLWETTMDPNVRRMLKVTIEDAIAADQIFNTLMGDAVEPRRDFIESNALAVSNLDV", "T2 sequence (P48372 whole entry)": "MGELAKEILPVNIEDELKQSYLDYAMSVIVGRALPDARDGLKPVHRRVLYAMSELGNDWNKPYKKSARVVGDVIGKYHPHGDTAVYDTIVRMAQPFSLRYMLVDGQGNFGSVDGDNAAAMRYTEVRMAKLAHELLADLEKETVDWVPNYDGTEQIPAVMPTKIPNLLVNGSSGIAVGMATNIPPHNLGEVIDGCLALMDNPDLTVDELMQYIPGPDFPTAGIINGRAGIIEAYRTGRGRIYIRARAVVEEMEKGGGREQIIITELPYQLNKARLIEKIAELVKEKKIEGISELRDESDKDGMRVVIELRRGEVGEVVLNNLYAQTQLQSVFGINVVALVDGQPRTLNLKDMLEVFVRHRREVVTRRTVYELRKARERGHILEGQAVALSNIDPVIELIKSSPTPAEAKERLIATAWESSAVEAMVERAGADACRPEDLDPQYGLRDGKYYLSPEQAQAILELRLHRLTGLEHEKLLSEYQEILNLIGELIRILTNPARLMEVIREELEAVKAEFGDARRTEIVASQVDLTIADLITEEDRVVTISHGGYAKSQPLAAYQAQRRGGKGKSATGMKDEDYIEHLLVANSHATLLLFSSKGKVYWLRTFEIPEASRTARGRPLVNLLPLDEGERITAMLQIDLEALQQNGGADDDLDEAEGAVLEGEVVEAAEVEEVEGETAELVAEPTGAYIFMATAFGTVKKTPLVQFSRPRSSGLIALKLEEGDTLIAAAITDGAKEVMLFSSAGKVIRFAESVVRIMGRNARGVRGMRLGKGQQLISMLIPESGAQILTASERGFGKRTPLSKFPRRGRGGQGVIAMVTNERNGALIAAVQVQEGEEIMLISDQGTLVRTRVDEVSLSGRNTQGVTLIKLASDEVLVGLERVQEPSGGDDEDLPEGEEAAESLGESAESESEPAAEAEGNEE", "test": "Cell-free gyrase supercoiling inhibition assay", "type": "biochemical", "settings": "purified enzyme, cell-free supercoiling kit"}, "[11]": {"test_system": "panel of Gram-negative pathogens", "test": "MIC panel, statements across strains", "type": "cell-based, K. pneumoniae, A. baumannii, P. aeruginosa, E. coli", "settings": "versus ciprofloxacin", "method": "as §1, §2"}, "[12]": {"test": "Solubility as observed in the MIC and enzyme experiments", "type": "physicochemical", "settings": "S. aureus DNA gyrase / topoisomerase IV assay media, at the high concentrations required", "method": "In vitro activity assays using purified S. aureus, E. coli and P. aeruginosa DNA gyrase, and S. aureus topoisomerase IV enzymes were performed in order to evaluate whether the gains in inhibitory activity predicted for the benzofused compounds were accurate. The benzothiophene-containing 6e was selected as a representative compound for the purposes of this experiment. […].\nA general correlation between N1 substituent hydrophobicity and activity is observed; […]."}, "[13]": {"settings": "RND-family efflux inhibitor PAβN"}, "[14]": {"settings": "PAβN, text names A. baumannii only"}}, "data": [{"smiles": "O=C(O)c1cn(-c2cccc3ccsc23)c2cc(N3CCNCC3)c(F)cc2c1=O", "note": "[Compound 6e]", "values": [{"measurement": "MIC", "setting": "[1]; M6, +PAβN (25 μg/mL), Table 3, strain S", "result": 1, "unit": "µg/mL"}, {"measurement": "MIC", "setting": "[1]; M6, +PMBN (30 μg/mL), ciprofloxacin-sensitive strain (S)", "result": 2, "unit": "µg/mL"}, {"measurement": "MIC", "setting": "[1]; M6, –PAβN, Table 3, strain S", "result": 8, "unit": "µg/mL"}, {"measurement": "MIC", "setting": "[1]; M6, –PMBN, ciprofloxacin-sensitive strain (S)", "result": 8, "unit": "µg/mL"}, {"measurement": "potentiation of MIC by PMBN", "setting": "[1]; MIC –PMBN vs +PMBN", "result": "2–4 fold"}, {"measurement": "effect of PAβN on MIC", "setting": "[1]; [13]", "result": "significant potentiation"}, {"measurement": "MIC", "setting": "[2]; NCTC13368, +PAβN (25 μg/mL), Table 3, strain R", "result": 4, "unit": "µg/mL"}, {"measurement": "MIC", "setting": "[2]; NCTC13368, +PMBN (30 μg/mL), ciprofloxacin-resistant strain (R)", "result": 8, "unit": "µg/mL"}, {"measurement": "MIC", "setting": "[2]; NCTC13368, –PAβN, Table 3, strain R", "result": "> 32", "unit": "µg/mL"}, {"measurement": "MIC", "setting": "[2]; NCTC13368, –PMBN, ciprofloxacin-resistant strain (R)", "result": 32, "unit": "µg/mL"}, {"measurement": "potentiation of MIC by PMBN", "setting": "[2]; MIC –PMBN vs +PMBN", "result": "4–8 fold"}, {"measurement": "effect of PAβN on MIC", "setting": "[2]; [13]", "result": "significant potentiation"}, {"measurement": "MIC", "setting": "[3]; ATCC17978, +PAβN (25 μg/mL), Table 3, strain S", "result": 4, "unit": "µg/mL"}, {"measurement": "MIC", "setting": "[3]; ATCC17978, +PMBN (30 μg/mL), ciprofloxacin-sensitive strain (S)", "result": 4, "unit": "µg/mL"}, {"measurement": "MIC", "setting": "[3]; ATCC17978, –PAβN, Table 3, strain S", "result": 4, "unit": "µg/mL"}, {"measurement": "MIC", "setting": "[3]; ATCC17978, –PMBN, ciprofloxacin-sensitive strain (S)", "result": 8, "unit": "µg/mL"}, {"measurement": "potentiation of MIC by PMBN", "setting": "[3]; MIC –PMBN vs +PMBN", "result": 2, "unit": "fold"}, {"measurement": "effect of PAβN on MIC", "setting": "[3]; [14]", "result": "Neither ciprofloxacin nor compound 6e showed any difference in MIC"}, {"measurement": "MIC", "setting": "[4]; +PAβN (25 μg/mL), Table 3, strain R", "result": "> 32", "unit": "µg/mL"}, {"measurement": "MIC", "setting": "[4]; +PMBN (30 μg/mL), ciprofloxacin-resistant strain (R)", "result": "> 32", "unit": "µg/mL"}, {"measurement": "MIC", "setting": "[4]; –PAβN, Table 3, strain R", "result": "> 32", "unit": "µg/mL"}, {"measurement": "MIC", "setting": "[4]; –PMBN, ciprofloxacin-resistant strain (R)", "result": "> 32", "unit": "µg/mL"}, {"measurement": "effect of PAβN on MIC", "setting": "[4]; [14]", "result": "Neither ciprofloxacin nor compound 6e showed any difference in MIC"}, {"measurement": "MIC", "setting": "[5]; PAO1, +PAβN (25 μg/mL), Table 3, strain S", "result": 2, "unit": "µg/mL"}, {"measurement": "MIC", "setting": "[5]; PAO1, +PMBN (30 μg/mL), ciprofloxacin-sensitive strain (S)", "result": 2, "unit": "µg/mL"}, {"measurement": "MIC", "setting": "[5]; PAO1, –PAβN, Table 3, strain S", "result": 32, "unit": "µg/mL"}, {"measurement": "MIC", "setting": "[5]; PAO1, –PMBN, ciprofloxacin-sensitive strain (S)", "result": 32, "unit": "µg/mL"}, {"measurement": "MIC", "setting": "[6]; NCTC13437, +PAβN (25 μg/mL), Table 3, strain R", "result": "> 32", "unit": "µg/mL"}, {"measurement": "MIC", "setting": "[6]; NCTC13437, +PMBN (30 μg/mL), ciprofloxacin-resistant strain (R)", "result": 32, "unit": "µg/mL"}, {"measurement": "MIC", "setting": "[6]; NCTC13437, –PAβN, Table 3, strain R", "result": "> 32", "unit": "µg/mL"}, {"measurement": "MIC", "setting": "[6]; NCTC13437, –PMBN, ciprofloxacin-resistant strain (R)", "result": "> 32", "unit": "µg/mL"}, {"measurement": "MIC", "setting": "[7]; NCTC12923, +PAβN (25 μg/mL), Table 3, strain S", "result": 0.25, "unit": "µg/mL"}, {"measurement": "MIC", "setting": "[7]; NCTC12923, +PMBN (30 μg/mL), ciprofloxacin-sensitive strain (S)", "result": 1, "unit": "µg/mL"}, {"measurement": "MIC", "setting": "[7]; NCTC12923, –PAβN, Table 3, strain S", "result": "0.25 to 2", "unit": "µg/mL"}, {"measurement": "MIC", "setting": "[7]; NCTC12923, –PMBN, ciprofloxacin-sensitive strain (S)", "result": 4, "unit": "µg/mL"}, {"measurement": "effect of PAβN on MIC", "setting": "[7]; PAβN, text names E. coli only", "result": "No effect"}, {"measurement": "MIC", "setting": "[8]; LEC001, +PAβN (25 μg/mL), Table 3, strain R", "result": "> 32", "unit": "µg/mL"}, {"measurement": "MIC", "setting": "[8]; LEC001, +PMBN (30 μg/mL), ciprofloxacin-resistant strain (R)", "result": "> 32", "unit": "µg/mL"}, {"measurement": "MIC", "setting": "[8]; LEC001, –PAβN, Table 3, strain R", "result": "> 32", "unit": "µg/mL"}, {"measurement": "MIC", "setting": "[8]; LEC001, –PMBN, ciprofloxacin-resistant strain (R)", "result": "> 32", "unit": "µg/mL"}, {"measurement": "effect of PAβN on MIC", "setting": "[8]; PAβN, text names E. coli only", "result": "No effect"}, {"measurement": "IC50", "setting": "[9]", "result": 6.38, "unit": "µM"}, {"measurement": "IC50", "setting": "[10]", "result": 15.8, "unit": "µM"}, {"measurement": "antibacterial activity", "setting": "[11]", "result": "limited activity"}, {"measurement": "solubility in assay media", "setting": "[12]", "result": "poorly soluble"}]}]}
